Test results from ChEMBL document CHEMBL1201862, “PubChem BioAssay data set” (2004).
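Assay format: 96-well plates, 48-hour exposure. Here, GI50 denotes the concentration required for 50% inhibition of growth.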 Active and inactive are the calls of the source. Rule as the data show it: active = GI50 up to about 1.1 µM and inactive = higher.

How the values were obtained:
Experiment in all cases: DTP human tumour cell line panel, 48 h
NCI-H460 = tested on: NCI-H460
HCT-116 = tested on: HCT-116
SNB-19 = tested on: SNB-19
MDA-MB-231 = tested on: MDA-MB-231
SNB-75 = tested on: SNB-75
HCT-15 = tested on: HCT-15
OVCAR-8 = tested on: OVCAR-8
NCI-H23 = tested on: NCI-H23
HOP-62 = tested on: HOP-62
MDA-N = tested on: MDA-N
RXF 393 = tested on: RXF 393
LOX IMVI = tested on: LOX IMVI
UACC-62 = tested on: UACC-62
HCC 2998 = tested on: HCC 2998
MOLT-4 = tested on: MOLT-4
K562 = tested on: K562
Hs-578T = tested on: Hs-578T
786-0 = tested on: 786-0
SK-OV-3 = tested on: SK-OV-3
SW-620 = tested on: SW-620
UACC-257 = tested on: UACC-257
MDA-MB-435 = tested on: MDA-MB-435
KM12 = tested on: KM12
NCI-H226 = tested on: NCI-H226
PC-3 = tested on: PC-3
SF-295 = tested on: SF-295
A549 = tested on: A549
EKVX = tested on: EKVX
CAKI-1 = tested on: CAKI-1
HL-60 = tested on: HL-60
M14 = tested on: M14
OVCAR-5 = tested on: OVCAR-5
Malme-3M = tested on: Malme-3M
U-251 = tested on: U-251
IGROV-1 = tested on: IGROV-1
SK-MEL-5 = tested on: SK-MEL-5
RPMI-8226 = tested on: RPMI-8226
OVCAR-3 = tested on: OVCAR-3
MCF7 = tested on: MCF7
SN12C = tested on: SN12C
NCI/ADR-RES = tested on: NCI/ADR-RES
SF-539 = tested on: SF-539
HOP-92 = tested on: HOP-92
CCRF-CEM = tested on: CCRF-CEM
COLO 205 = tested on: COLO 205
SF-268 = tested on: SF-268
DU-145 = tested on: DU-145
SK-MEL-2 = tested on: SK-MEL-2
UO-31 = tested on: UO-31
ACHN = tested on: ACHN
NCI-H522 = tested on: NCI-H522
SK-MEL-28 = tested on: SK-MEL-28
HT-29 = tested on: HT-29
T47D = tested on: T47D
TK-10 = tested on: TK-10
OVCAR-4 = tested on: OVCAR-4
SR = tested on: SR
A498 = tested on: A498

Measured: GI50

CC1(C)COC(c2ccc(C(=O)c3ccc(Cl)cc3)cc2)=N1
> 100 µM: HCT-15
inactive: NCI-H460 > 100 µM | HCT-116 > 100 µM | SNB-19 > 100 µM | MDA-MB-231 > 100 µM | SNB-75 > 100 µM | OVCAR-8 84.9 µM | NCI-H23 6.95 µM | HOP-62 > 100 µM | MDA-N > 100 µM | RXF 393 79.6 µM | LOX IMVI > 100 µM | UACC-62 > 100 µM | HCC 2998 > 100 µM | MOLT-4 98.2 µM | K562 28.6 µM | Hs-578T > 100 µM | 786-0 > 100 µM | SK-OV-3 > 100 µM | SW-620 > 100 µM | UACC-257 10.7 µM | MDA-MB-435 44.5 µM | KM12 > 100 µM | NCI-H226 23 µM | PC-3 > 100 µM | SF-295 65.2 µM | A549 83 µM | EKVX 44.6 µM | CAKI-1 > 100 µM | HL-60 43.5 µM | M14 > 100 µM | OVCAR-5 > 100 µM | Malme-3M 42.5 µM | U-251 > 100 µM | IGROV-1 > 100 µM | SK-MEL-5 7.23 µM | RPMI-8226 > 100 µM | OVCAR-3 > 100 µM | MCF7 86.5 µM | SN12C > 100 µM | NCI/ADR-RES 92.7 µM | SF-539 > 100 µM | HOP-92 85.1 µM | CCRF-CEM > 100 µM | COLO 205 > 100 µM | SF-268 > 100 µM | DU-145 > 100 µM | SK-MEL-2 > 100 µM | UO-31 58.7 µM | ACHN > 100 µM | NCI-H522 > 100 µM | SK-MEL-28 > 100 µM | HT-29 > 100 µM

O=c1ccn(Cc2ccccc2CCl)c(=O)[nH]1
18.4 µM: HCT-15
inactive: NCI-H460 > 100 µM | HCT-116 21.7 µM | SNB-19 33.3 µM | SNB-75 45.2 µM | OVCAR-8 25.9 µM | NCI-H23 20.4 µM | HOP-62 25.7 µM | RXF 393 24 µM | UACC-62 26.9 µM | HCC 2998 22.7 µM | MOLT-4 40.6 µM | K562 34.8 µM | Hs-578T 29.2 µM | 786-0 20.7 µM | SK-OV-3 46.5 µM | SW-620 35.5 µM | UACC-257 25.8 µM | MDA-MB-435 28.9 µM | KM12 26.5 µM | PC-3 31.8 µM | SF-295 23.3 µM | A549 47.8 µM | EKVX 25.4 µM | CAKI-1 25 µM | HL-60 37.2 µM | M14 26.2 µM | OVCAR-5 21.5 µM | Malme-3M 20.2 µM | U-251 29.7 µM | IGROV-1 24.3 µM | SK-MEL-5 3 µM | T47D 43.9 µM | TK-10 39.1 µM | OVCAR-4 69.7 µM | OVCAR-3 22.3 µM | MCF7 23.6 µM | SN12C 27.6 µM | NCI/ADR-RES 22.1 µM | SF-539 24 µM | HOP-92 57.9 µM | CCRF-CEM 30.7 µM | COLO 205 27.2 µM | SF-268 25.7 µM | DU-145 32.4 µM | SR 27.7 µM | SK-MEL-2 32.7 µM | UO-31 29.3 µM | ACHN 26.9 µM | NCI-H522 20.4 µM | SK-MEL-28 33.8 µM | HT-29 24.2 µM

CCOC(=O)C1CSCCSC1
inactive: NCI-H460 17.5 µM | HCT-116 > 100 µM | SNB-19 > 100 µM | MDA-MB-231 > 100 µM | SNB-75 43 µM | OVCAR-8 > 100 µM | NCI-H23 > 100 µM | MDA-N > 100 µM | RXF 393 > 100 µM | LOX IMVI > 100 µM | HCC 2998 25.5 µM | MOLT-4 > 100 µM | K562 > 100 µM | Hs-578T > 100 µM | SK-OV-3 > 100 µM | SW-620 > 100 µM | UACC-257 > 100 µM | MDA-MB-435 > 100 µM | KM12 > 100 µM | NCI-H226 > 100 µM | PC-3 > 100 µM | SF-295 > 100 µM | A549 > 100 µM | A498 44.3 µM | U-251 > 100 µM | SK-MEL-5 43.2 µM | TK-10 > 100 µM | MCF7 > 100 µM | SN12C > 100 µM | NCI/ADR-RES > 100 µM | HOP-92 > 100 µM | CCRF-CEM > 100 µM | COLO 205 > 100 µM | SF-268 > 100 µM | DU-145 > 100 µM | SR > 100 µM | UO-31 > 100 µM | ACHN > 100 µM | NCI-H522 > 100 µM | SK-MEL-28 > 100 µM | HT-29 > 100 µM
> 100 µM: HCT-15

COc1cc2c(cc1OC)C1C[C@]3(CCN1CC2)C(=O)N(c1ccccc1)C(=O)N3C(C)=O (some centres not stated)
> 200 µM: HCT-15
inactive: HCT-116 > 200 µM | SNB-19 > 200 µM | MDA-MB-231 > 200 µM | SNB-75 > 200 µM | OVCAR-8 > 200 µM | NCI-H23 > 200 µM | MDA-N > 200 µM | RXF 393 > 200 µM | SW-620 > 200 µM | MDA-MB-435 > 200 µM | KM12 > 200 µM | NCI-H226 > 200 µM | PC-3 > 200 µM | SF-295 > 200 µM | A549 > 200 µM | EKVX > 200 µM | CAKI-1 > 200 µM | M14 > 200 µM | OVCAR-5 > 200 µM | A498 > 200 µM | U-251 > 200 µM | IGROV-1 > 200 µM | SK-MEL-5 > 200 µM | TK-10 > 200 µM | OVCAR-4 > 200 µM | OVCAR-3 > 200 µM | SN12C > 200 µM | NCI/ADR-RES > 200 µM | SF-539 > 200 µM | HOP-92 > 200 µM | COLO 205 > 200 µM | SF-268 > 200 µM | DU-145 > 200 µM | UO-31 > 200 µM | ACHN > 200 µM | SK-MEL-28 > 200 µM | HT-29 > 200 µM

O=C(O)CCCc1ccccc1 [SODIUM PHENYLBUTYRATE]
inactive: NCI-H460 118 µM | RXF 393 193 µM | UACC-62 172 µM | HCC 2998 144 µM | MOLT-4 117 µM | K562 102 µM | Hs-578T 182 µM | KM12 126 µM | A498 144 µM | SK-MEL-5 162 µM | SN12C 102 µM | SF-539 177 µM | HOP-92 80.2 µM | CCRF-CEM 63.5 µM | UO-31 189 µM | NCI-H522 110 µM
137 µM: HCT-15
